Laboratory results reported in patent publication US4482565A, “β-Lactam-containing antibacterial agents and β-lactamase inhibitors” (Farmitalia Carlo Erba S.p.A., priority 1981, dated 1984).
Converted amounts (≈) assume the structure as drawn. Where two headings read alike, the source gives them in different places.

What was measured:
Type in all cases: cell-based
[1] = system: Staphylococcus aureus 209P; test: in vitro antibacterial activity (MIC); settings: collection strain, read-out: MIC (minimal inhibitory concentration)
[2] = system: Salmonella montevideo F16; test: in vitro antibacterial activity (MIC); settings: Salmonella enterica, read-out: MIC (minimal inhibitory concentration)
Escherichia coli B Cef R = test: in vitro antibacterial activity (MIC); settings: read-out: MIC (minimal inhibitory concentration)
[3] = system: Pseudomonas aeruginosa ATCC 2598; test: in vitro antibacterial activity (MIC); settings: ATCC2598, collection strain, read-out: MIC (minimal inhibitory concentration)
[4] = system: Staphylococcus aureus 153; test: in vitro antibacterial activity (MIC); settings: lactamase producer, read-out: MIC (minimal inhibitory concentration)
Escherichia coli P 453 = test: in vitro antibacterial activity (MIC)
[5] = system: Salmonella Saint Paul F20; test: in vitro antibacterial activity (MIC); settings: read-out: MIC (minimal inhibitory concentration)
[6] = system: Staphylococcus aureus PV2; test: in vitro antibacterial activity (MIC); settings: read-out: MIC (minimal inhibitory concentration)
Klebsiella sp. R2 = test: in vitro antibacterial activity (MIC); settings: read-out: MIC (minimal inhibitory concentration)
Proteus mirabilis V15 = test: in vitro antibacterial activity (MIC); settings: read-out: MIC (minimal inhibitory concentration)
Pseudomonas aeruginosa = test: in vitro antibacterial activity (MIC); settings: read-out: MIC (minimal inhibitory concentration)
Salmonella typhimurium [7] = test: in vitro antibacterial activity (MIC), collection strain; settings: Salmonella enterica, read-out: MIC (minimal inhibitory concentration)
Escherichia coli RP 1 = test: in vitro antibacterial activity (MIC); settings: RP1, read-out: MIC (minimal inhibitory concentration)
Enterobacter cloacae 214 = test: in vitro antibacterial activity (MIC); settings: lactamase producer, read-out: MIC (minimal inhibitory concentration)
Escherichia coli R 57 B = test: in vitro antibacterial activity (MIC); settings: R57B, read-out: MIC (minimal inhibitory concentration)
Escherichia coli V23 = test: in vitro antibacterial activity (MIC); settings: read-out: MIC (minimal inhibitory concentration)
Escherichia coli B = test: in vitro antibacterial activity (MIC); settings: read-out: MIC (minimal inhibitory concentration)
Salmonella derby F14 = test: in vitro antibacterial activity (MIC); settings: Salmonella enterica, read-out: MIC (minimal inhibitory concentration)
[8] = system: Klebsiella pneumoniae ATCC 10031; test: in vitro antibacterial activity (MIC); settings: ATCC10031, Klebsiella pneumoniae ATCC 10031 (first listing), read-out: MIC (minimal inhibitory concentration)
Escherichia coli RGN 238 = test: in vitro antibacterial activity (MIC); settings: RGN238, lactamase producer, read-out: MIC (minimal inhibitory concentration)
Escherichia coli R 6 K = test: in vitro antibacterial activity (MIC); settings: R6K, read-out: MIC (minimal inhibitory concentration)
[9] = system: Pseudomonas aeruginosa FI; test: in vitro antibacterial activity (MIC); settings: collection strain, read-out: MIC (minimal inhibitory concentration)
Escherichia coli V14 = test: in vitro antibacterial activity (MIC); settings: read-out: MIC (minimal inhibitory concentration)
Enterobacter sp V19 = test: in vitro antibacterial activity (MIC); settings: read-out: MIC (minimal inhibitory concentration)
Salmonella typhimurium [10] = test: in vitro antibacterial activity (MIC); settings: Salmonella enterica, Salmonella typhimurium (first listing), read-out: MIC (minimal inhibitory concentration)
Proteus mirabilis = test: in vitro antibacterial activity (MIC), collection strain; settings: read-out: MIC (minimal inhibitory concentration)
[11] = system: Enterobacter cloacae P 99; test: in vitro antibacterial activity (MIC); settings: P99, read-out: MIC (minimal inhibitory concentration)
Escherichia coli R 997 = test: in vitro antibacterial activity (MIC); settings: R997, read-out: MIC (minimal inhibitory concentration)
[12] = system: Staphylococcus aureus Smith; test: in vitro antibacterial activity (MIC); settings: collection strain, read-out: MIC (minimal inhibitory concentration)
Streptococcus pyogenes = test: in vitro antibacterial activity (MIC); settings: read-out: MIC (minimal inhibitory concentration)
Proteus mirabilis 525 = test: in vitro antibacterial activity (MIC)
Escherichia coli R 46 = test: in vitro antibacterial activity (MIC)
Proteus vulgaris V15 = test: in vitro antibacterial activity (MIC); settings: read-out: MIC (minimal inhibitory concentration)
Shigella flexneri = test: in vitro antibacterial activity (MIC); settings: read-out: MIC (minimal inhibitory concentration)
Method: A series of tests was carried out in vitro to compare the activities of (5R)-acetoxymethyl-2-acetoxymethyl-2-penum-3-carboxylate (Laboratory code FCE/20077/B40/341), (5R) acetoxymethyl-2-[(1-methyl-1H-tetrazol-5-yl)-thiomethyl]-2-penem-3-carboxylate (compound A), three reference compounds (ampicillin, cefoxitin, and thienamycin), and compound 387, which is (5R)-2-acetoxymethyl-6-(1-hydroxyethyl)-2-penem-3-carboxylic acid. The acetoxymethoxy ester of compound 387 is prepared in Example 51 and the sodium salt of the acid is prepared in Example 98 infra. Table 1 below reports the results of the above assays as MIC (minimal inhibitory concentration).

[13] = system: Klebsiella pneumoniae ATCC 10031; test: in vitro antibacterial activity (MIC), second listing of the strain; settings: ATCC10031, collection strain (second listing), read-out: MIC (minimal inhibitory concentration)
[14] = system: Salmonella abortivoequina; test: in vitro antibacterial activity (MIC); settings: collection strain, read-out: MIC (minimal inhibitory concentration)
Salmonella panamae F15 = test: in vitro antibacterial activity (MIC)
[15] = system: Klebsiella aerogenes ATCC 1082 E; test: in vitro antibacterial activity (MIC)
[16] = in vitro, Escherichia coli B, collection strain
[17] = in vitro, Proteus mirabilis 525, read-out: MIC (minimal inhibitory concentration)
[18] = in vitro, Salmonella panamae F15, read-out: MIC (minimal inhibitory concentration)

Structure (SMILES) | MIC [1] [µg/mL] | MIC [2] [µg/mL] | MIC (Escherichia coli B Cef R) [µg/mL] | MIC [3] [µg/mL] | MIC [4] [µg/mL] | MIC [5] [µg/mL] | MIC [6] [µg/mL] | MIC (Klebsiella sp. R2) [µg/mL] | MIC (Proteus mirabilis V15) [µg/mL] | MIC (Pseudomonas aeruginosa; in vitro) [µg/mL] | MIC (Escherichia coli RP 1) [µg/mL] | MIC (Escherichia coli V23) [µg/mL] | MIC (Salmonella derby F14) [µg/mL] | MIC [8] [µg/mL] | MIC (Escherichia coli V14) [µg/mL] | MIC (Enterobacter sp V19) [µg/mL] | MIC (Salmonella typhimurium [10]) [µg/mL] | MIC [12] [µg/mL] | MIC (Proteus vulgaris V15) [µg/mL] | MIC (Shigella flexneri) [µg/mL] | other results
CC1(C)S[C@@H]2[C@H](NC(=O)[C@H](N)c3ccccc3)C(=O)N2[C@H]1C(=O)O [Ampicillin] | ≤ 0.19 | 0.78 (≈ 2.23 µM) | > 100 | > 100 | 1.56 (≈ 4.46 µM) | 0.78 (≈ 2.23 µM) | ≤ 0.19 | 50 (≈ 143 µM) | ≤ 0.19 | 25 (≈ 71.5 µM) | > 100 | 3.12 (≈ 8.93 µM) | 0.78 (≈ 2.23 µM) | 50 (≈ 143 µM) | 1.56 (≈ 4.46 µM) | > 100 | 0.78 (≈ 2.23 µM) | ≤ 0.19 | 1.56 (≈ 4.46 µM) | ≤ 0.19 | MIC (Escherichia coli P 453; P453, in vitro, Escherichia coli P 453, lactamase producer, read-out: MIC (minimal inhibitory concentration)): > 100 µg/mL; MIC (Salmonella typhimurium [7]; in vitro, Salmonella Typhimurium, collection strain (second listing)): 0.78 µg/mL (≈ 2.23 µM); MIC (Enterobacter cloacae 214): > 100 µg/mL; MIC (Escherichia coli R 57 B; in vitro, Escherichia coli R 57 B, lactamase producer): 25 µg/mL (≈ 71.5 µM); MIC (Escherichia coli B; [16]): 0.39 µg/mL (≈ 1.12 µM); MIC (Escherichia coli RGN 238): > 100 µg/mL; MIC (Escherichia coli R 6 K): > 100 µg/mL; MIC [9]: > 100 µg/mL; MIC (Proteus mirabilis; in vitro, collection strain): > 100 µg/mL; MIC [11]: > 100 µg/mL; MIC (Escherichia coli R 997): > 100 µg/mL; MIC (Streptococcus pyogenes; in vitro): 3.12 µg/mL (≈ 8.93 µM); MIC (Proteus mirabilis 525; [17]): 0.39 µg/mL (≈ 1.12 µM); MIC (Escherichia coli R 46; R46, in vitro, Escherichia coli R 46, lactamase producer, read-out: MIC (minimal inhibitory concentration)): 25 µg/mL (≈ 71.5 µM); MIC [13]: 25 µg/mL (≈ 71.5 µM); MIC [14]: 0.19 µg/mL (≈ 0.544 µM); MIC (Salmonella panamae F15; [18]): 0.78 µg/mL (≈ 2.23 µM); MIC ([15]; ATCC1082, in vitro, Klebsiella aerogenes ATCC 1082 E, lactamase producer, read-out: MIC (minimal inhibitory concentration)): > 100 µg/mL
CO[C@@]1(NC(=O)Cc2cccs2)C(=O)N2C(C(=O)O)=C(COC(N)=O)CS[C@@H]21 [Cefoxitin] | 0.78 (≈ 1.82 µM) | 3.12 (≈ 7.3 µM) | > 100 | > 100 | 0.78 (≈ 1.82 µM) | 3.12 (≈ 7.3 µM) | 0.78 (≈ 1.82 µM) | 12.5 (≈ 29.2 µM) | 0.78 (≈ 1.82 µM) |  | 1.56 (≈ 3.65 µM) | 12.5 (≈ 29.2 µM) | 3.12 (≈ 7.3 µM) | 0.78 (≈ 1.82 µM) | 3.12 (≈ 7.3 µM) | 12.5 (≈ 29.2 µM) | 3.12 (≈ 7.3 µM) | 0.78 (≈ 1.82 µM) | 0.78 (≈ 1.82 µM) | 0.78 (≈ 1.82 µM) | MIC (Escherichia coli P 453; Escherichia coli, P453, read-out: MIC (minimal inhibitory concentration)): 1.56 µg/mL (≈ 3.65 µM); MIC (Pseudomonas aeruginosa): 6.25 µg/mL (≈ 14.6 µM); MIC (Salmonella typhimurium [7]; TYPHIMURIUM): 1.56 µg/mL (≈ 3.65 µM); MIC (Enterobacter cloacae 214): > 100 µg/mL; MIC (Escherichia coli R 57 B; Escherichia coli): 1.56 µg/mL (≈ 3.65 µM); MIC (Escherichia coli B; Escherichia coli): 1.56 µg/mL (≈ 3.65 µM); MIC (Escherichia coli RGN 238): 3.12 µg/mL (≈ 7.3 µM); MIC (Escherichia coli R 6 K): 3.1 µg/mL (≈ 7.25 µM); MIC [9]: 6.25 µg/mL (≈ 14.6 µM); MIC (Proteus mirabilis): 1.56 µg/mL (≈ 3.65 µM); MIC [11]: 100 µg/mL (≈ 234 µM); MIC (Escherichia coli R 997): 6.25 µg/mL (≈ 14.6 µM); MIC (Streptococcus pyogenes): 1.56 µg/mL (≈ 3.65 µM); MIC (Proteus mirabilis 525; Proteus mirabilis, 525, read-out: MIC (minimal inhibitory concentration)): 1.56 µg/mL (≈ 3.65 µM); MIC (Escherichia coli R 46; Escherichia coli, R46, read-out: MIC (minimal inhibitory concentration)): 1.56 µg/mL (≈ 3.65 µM); MIC [13]: 0.78 µg/mL (≈ 1.82 µM); MIC [14]: 0.78 µg/mL (≈ 1.82 µM); MIC (Salmonella panamae F15; Salmonella, F15, read-out: MIC (minimal inhibitory concentration)): 1.56 µg/mL (≈ 3.65 µM); MIC ([15]; Klebsiella aerogenes, ATCC1082, read-out: MIC (minimal inhibitory concentration)): 6.25 µg/mL (≈ 14.6 µM)
CC(=O)OCOC(=O)C1=C(CSc2nnnn2C)S[C@@H]2CC(=O)N12 [Compound A, (5R)-Acetoxymethyl-2-[(1-methyl-1-H-tetrazol-5-yl)-thiomethyl]-2-penem-3-carboxylate] | 0.39 (≈ 1.05 µM) | 0.78 (≈ 2.1 µM) |  |  | 0.78 (≈ 2.1 µM) | 0.78 (≈ 2.1 µM) | 0.78 (≈ 2.1 µM) |  | 0.78 (≈ 2.1 µM) | 0.39 (≈ 1.05 µM) |  | 0.78 (≈ 2.1 µM) | 0.78 (≈ 2.1 µM) | 3.12 (≈ 8.4 µM) | 0.78 (≈ 2.1 µM) | > 100 | 0.78 (≈ 2.1 µM) | 0.39 (≈ 1.05 µM) | 6.25 (≈ 16.8 µM) | 0.39 (≈ 1.05 µM) | MIC (Escherichia coli B; [16]): 0.78 µg/mL (≈ 2.1 µM); MIC (Streptococcus pyogenes; in vitro): 0.78 µg/mL (≈ 2.1 µM); MIC (Proteus mirabilis 525; [17]): 0.78 µg/mL (≈ 2.1 µM); MIC (Salmonella panamae F15; [18]): 0.78 µg/mL (≈ 2.1 µM)
